Results as given in patent US4191808A, “Method of measuring dipeptidyl-amino-peptidase activity” (Ajinomoto Co., Inc., priority 1975, dated 1980).
Peptide text beside a SMILES is read from it. * marks the point of attachment. pNA = O=[N+]([O-])c1ccc(N*)cc1

Tests used:
[1] = target: T1, X-prolyl dipeptidyl-aminopeptidase in human serum (Homo sapiens, UniProt P27487); assay: Hydrolysis of phenylazo substrates by human serum, photometry at 493 nm / 532 nm; format: biochemical; conditions: 0.05 ml human serum, pH 8.7, 37° C., 30 minutes
T1 construct: Even if crude enzyme such as human serum is used as enzyme source, the activity is accurately measured; from tissue; host or cells: human serum (normal subjects and patients)
Description: 3 mM of substrate solutions were prepared as in Example 22, glycyl-L-proline p-phenylazoanilide tosylate and glycyl-L-proline 4-phenylazo-1-naphthylamide being used as substrates.
The assay of enzyme activity was carried out by adding 0.05 ml of human serum to a mixture of 0.5 ml […] glycine-NaOH buffer (pH 8.7) and 0.5 ml substrate solution in the experimental tube, incubating the resulting solution at 37° C. for 30 minutes, and then stopping the reaction with 3.0 ml 1N-hydrochloric acid. The absorbances were A 493 nm=0.18 for glycyl-L-proline p-phenylazoanilide and A 532 nm=0.80 for glycyl-L-proline 4-phenylazo-1-naphthylamide.
The rate of hydrolysis of glycyl-L-proline p-phenylazoanilide was measured as in Example 26, human serum being used as enzyme. However, the blank tube contained water instead of the enzyme solution in the experimental tube, and the standard tube contained 3 mM p-phenylazo-aniline solution instead of the enzyme solution in the experimental tube.

[2] = system: purified human submaxillary enzyme (X-prolyl dipeptidyl-aminopeptidase); assay: Direct photometric assay of substrate hydrolysis with purified human submaxillary enzyme; format: biochemical; conditions: for Optimum pH: Tris-maleate, glycine-NaOH or amidiol buffer; for Relative enzyme activity (%) Purified human submaxillary enzyme pH 7.0: pH 7.0, 0.15 M Tris-maleate buffer, glycyl-L-proline p-nitroanilide = 100; for Km: pH 7.0, Tris-maleate buffer, mean of duplicate experiments
Description: (§1) 3mM substrate solutions were prepared as in Example 22, various dipeptide derivatives or salts thereof being used as substrates. The relative enzyme activities toward various substrates, and the rates and optimum pHs of hydrolysis of various substrates with the enzyme were measured as in Example 22.
^a Activities were measured in 0.15 M Trismaleate buffer at pH 5.6-8.
and in 0.15 M glycineNaOH buffer at pH 8.2-9.4, purified human
submaxillary enzyme being used. For Lalanyl-L-proline pnitroanilide,
amidiol buffer were used instead of glycine buffer, since glycine buffer
interfered the photometry at pH 9-10.
^b Km values were measured at 7.0 in Trismaleate buffer, purified
human submaxillary enzyme being used. The values are the mean of duplicat
(§2) ^c Activities were measured at pH 7.0 in 0.15 M Trismaleate buffer or
(§3) at pH 8.7 in 0.15 M glycineNaOH buffer. The values are the mean of
^d The purified enzyme was obtained by the following method; The
enzyme was solubilized from the microsomal fraction by autodigestion, and
subsequently purified by (NH4)2 SO4 fractionation followed
by Sephadex G200 chromatography.

[3] = target: T1, X-prolyl dipeptidyl-aminopeptidase in human serum; assay: Direct photometric assay of substrate hydrolysis (p-nitroaniline liberated, 385 nm) with human serum as enzyme source; format: biochemical; conditions: for Enzyme activity (μmole/min/1 serum ± S.E.): 3 cases; for Relative enzyme activity (%) Human serum pH 7.0: pH 7.0, 0.15 M Tris-maleate buffer; for Relative enzyme activity (%) Human serum pH 7.0 / Relative enzyme activity (%) Human serum pH 8.7: glycyl-L-proline p-nitroanilide = 100; for Relative enzyme activity (%) Human serum pH 8.7: pH 8.7, 0.15 M glycine-NaOH buffer
Description: The relation between the incubation time and the amount of substrate hydrolyzed was examined, glycyl-L-proline p-nitroanilide and human serum being used as substrate and enzyme source, respectively, and the assay of the substrate hydrolyzed was carried out by the following direct photometric method.
Glycyl-L-proline p-nitroanilide tosylate was dissolved in 2% non-ionic detergent (Nikkol NP-10; Nikko Chemicals, Osaka, Japan) aqueous solution in a concentration of 3 mM to prepare the substrate solution. The following four tubes were prepared:
(1) the experimental tube contained 0.5 ml of 0.15 M glycine-NaOH buffer (pH 8.7), 0.5 ml of the substrate solution, and 0.05 ml of human serum
(2) the blank tube contained 0.5 ml of the 0.15 M glycine-NaOH buffer, 0.5 ml of the substrate solution and 0.05 ml of water.
(3) the standard tube contained 0.5 ml of the buffer, 0.5 ml of the substrate and 0.05 ml of 3 mM p-nitroaniline aqueous solution.
(4) the control tube contained 0.5 ml of the buffer and 0.5 ml of the substrate.
All tubes were incubated at 37° C. for the periods listed in Table 1, and the reaction was stopped by the addition of 3.0 ml of 1M acetate buffer (pH 4.2) to every tube. To the control tube, 0.05 ml of the human serum was added after stopping the reaction. A photometer was adjusted to zero with the blank, and the absorbances of the experimental (E), control (C), and standard (S) were read at 385 nm in a cuvette with 1 cm light path. p-Nitroaniline liberated by the enzyme reaction was calculated by the equation [formula]
as §1, §2, §3
The activity of X-prolyl dipeptidyl-aminopeptidase was measured as in Example 22, glycyl-L-proline p-nitroanilide and 88 normal human sera being used as substrate and enzyme, respectively.
The activity of X-prolyl dipeptidyl-aminopeptidase was measured as in Example 22, glycyl-L-proline p-nitroanilide and human sera from patients being used as substrate and enzyme sources, respectively.
The activity of X-prolyl dipeptidyl-aminopeptidase was measured as in Example 22, various X-L-prolyl p-nitroanilides, and human sera from patients being used as substrates and enzyme sources, respectively.

[4] = target: T1, X-prolyl dipeptidyl-aminopeptidase in human serum; assay: Azo-coupling assay of substrate hydrolysis (548 nm) with human serum as enzyme source; format: biochemical; conditions: 37° C., 30 minutes, pH 8.7
Description: The relation between the amount of enzyme and the amount of substrate hydrolyzed was examined, glycyl-L-proline p-nitroanilide tosylate and human serum being used as substrate and enzyme source, respectively, and the assay of the substrate hydrolyzed being carried out by the following azo-coupling method.
The following tubes were prepared: (1) the experimental tube contained 1.0 ml of 0.15 M glycine-NaOH buffer (pH 8.7), 1.0 ml of the substrate solution prepared in Example 22, and the volume listed in table 2 of human serum.
(2) the control tube contained 1.0 ml of the glycine-NaOH buffer, and 1.0 ml of the substrate solution.
Both experimental and control tubes were incubated at 37° C. for 30 minutes, and 0.1 ml of the serum was added to the control tube. The reaction was stopped by adding 0.4 ml of 30% perchloric acid aqueous solution. After centrifuging at 3000 rpm for 10 minutes, each 0.5 ml of the supernatant was transferred to another tube; besides 0.1 ml of […] p-nitroaniline aqueous solution and 2.4 ml of 30% perchloric acid solution were added to the standard tube, and 2.5 ml of the perchloric acid solution was added to the blank tube.
To all the four tubes, 0.5 ml of 0.2% sodium nitrite aqueous solution at 4° C., and they were kept at 4° C. for 10 minutes. Then, 0.5 ml of freshly prepared 0.5% ammonium sulfamate aqueous solution was added. After 2 minutes, 1.0 ml of 0.05% N-(1-naphthyl) ethylenediamine solution was added and the mixtures were incubated at 37° C. for 30 minutes in the dark.
A photometer was adjusted to zero with the blank, and the absorbances of the experimental (E), control (C), and standard (S) were read at 548 nm.
p-Nitroaniline formed enzymically was calculated by the equation: [formula] the volume of […] p-nitroaniline aqueous solution used in the standard tube (ml)).

[5] = Time for perfect dissolution in water with stirring; format: physicochemical; conditions: 0.23 mg in 100 ml water with stirring
Description: 0.23 mg of crystalline glycyl-L-proline p-nitroanilide tosylate was dissolved in 100 ml water with stirring. It took ca. 30 minutes at 20° C. and ca. 18 minutes at 30° C. for perfect dissolution.
On the other hand, 0.23 mg of porous glycyl-L-proline p-nitroanilide tosylate, which was prepared by freezing […]. mole aqueous solution of the same at -40° C. and then drying the freezed solid at 0.05 mmHg, was dissolved in 100 ml water with stirring as in the above procedure. It only took ca. 10 seconds at 20° C. and ca. 5 seconds at 30° C. for perfect dissolution.

[6] = human sera from patients, Gastric Cancer
[7] = human sera from patients, Hepatitis

T1 sequence (P27487 39-766 limits assumed): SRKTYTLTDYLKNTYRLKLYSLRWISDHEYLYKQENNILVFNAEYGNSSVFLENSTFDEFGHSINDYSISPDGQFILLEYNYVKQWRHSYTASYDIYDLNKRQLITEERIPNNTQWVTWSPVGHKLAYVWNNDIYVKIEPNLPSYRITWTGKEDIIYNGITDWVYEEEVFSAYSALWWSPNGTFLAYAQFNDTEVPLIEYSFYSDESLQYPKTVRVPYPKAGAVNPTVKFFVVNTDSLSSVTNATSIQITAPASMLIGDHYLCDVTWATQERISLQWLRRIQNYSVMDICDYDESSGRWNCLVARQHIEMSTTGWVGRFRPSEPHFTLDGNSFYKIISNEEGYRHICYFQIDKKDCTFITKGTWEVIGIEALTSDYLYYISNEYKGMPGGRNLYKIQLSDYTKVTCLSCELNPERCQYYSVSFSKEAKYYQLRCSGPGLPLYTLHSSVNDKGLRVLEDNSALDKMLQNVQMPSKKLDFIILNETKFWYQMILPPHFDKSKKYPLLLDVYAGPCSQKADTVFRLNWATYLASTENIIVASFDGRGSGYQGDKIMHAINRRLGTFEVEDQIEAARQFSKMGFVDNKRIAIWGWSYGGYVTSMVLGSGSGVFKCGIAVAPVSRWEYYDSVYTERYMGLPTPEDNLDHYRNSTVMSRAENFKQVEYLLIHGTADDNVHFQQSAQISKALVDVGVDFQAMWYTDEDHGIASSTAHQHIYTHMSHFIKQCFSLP

Compound | Optimum pH [2] | Relative enzyme activity (%) Purified human submaxillary enzyme pH 7.0 [2] | Km [2] | Enzyme activity (μmole/min/1 serum ± S.E.) [3, 6] | Enzyme activity (μmole/min/1 serum ± S.E.) [3, 7] | Enzyme activity (μmole/min/1 serum ± S.E.) ([3]; human sera, Normal (control)) | Relative enzyme activity (%) Human serum pH 7.0 ([3]; human serum) | Relative enzyme activity (%) Human serum pH 8.7 ([3]; human serum) | further results
NCC(=O)N1CCC[C@H]1C(=O)Nc1ccc(N=Nc2ccccc2)c2ccccc12 [Glycyl-L-proline 4-phenylazo-1-naphthyl amide] | – | – | – | – | – | – | – | – | absorbance A 532 nm [1]: 0.80
C[C@H](N)C(=O)N1CCC[C@H]1C(=O)Nc1ccc([N+](=O)[O-])cc1.Cl [L-alanyl-L-proline p-nitroanilide, L-Alanyl-L-proline p-nitroanilide hydrochloride] (H-Ala-Pro-pNA) | 8.5-8.7 | 86% | 14 µM | 18.5 ± 1.9 μmole/min/1 serum | 99.5 ± 17.0 μmole/min/1 serum | 36.6 ± 9.6 μmole/min/1 serum | 83% | 75% | –
Cc1ccc(S(=O)(=O)O)cc1.Cc1ccc(S(=O)(=O)O)cc1.N=C(N)NCCC[C@H](N)C(=O)N1CCC[C@H]1C(=O)Nc1ccc([N+](=O)[O-])cc1 [L-arginyl-L-proline p-nitroanilide, L-Arginyl-L-proline p-nitroanilide ditosylate] (H-Arg-Pro-pNA) | 7.8-8.0 | 94% | 230 µM | 6.0 ± 0.7 μmole/min/1 serum | 35.5 ± 6.8 μmole/min/1 serum | 13.8 ± 3.6 μmole/min/1 serum | 86% | 55% | –
N[C@@H](CC(=O)O)C(=O)N1CCC[C@H]1C(=O)Nc1ccc([N+](=O)[O-])cc1 [L-aspartyl-L-proline p-nitroanilide, L-Aspartyl-L-proline p-nitroanilide] (H-Asp-Pro-pNA) | 8.5-8.7 | 37% | 81 µM | 17.6 ± 1.6 μmole/min/1 serum | 102.5 ± 17.5 μmole/min/1 serum | 37.7 ± 9.0 μmole/min/1 serum | 34% | 28% | –
N[C@@H](CCC(=O)O)C(=O)N1CCC[C@H]1C(=O)Nc1ccc([N+](=O)[O-])cc1 [L-glutamyl-L-proline p-nitroanilide, L-Glutamyl-L-proline p-nitroanilide] (H-Glu-Pro-pNA) | 8.5-8.7 | 58% | 23 µM | 13.9 ± 1.3 μmole/min/1 serum | 74.8 ± 17.6 μmole/min/1 serum | 27.5 ± 7.5 μmole/min/1 serum | 54% | 37% | –
Cc1ccc(S(=O)(=O)O)cc1.Cc1ccc(S(=O)(=O)O)cc1.NCCCC[C@H](N)C(=O)N1CCC[C@H]1C(=O)Nc1ccc([N+](=O)[O-])cc1 [L-lysyl-L-proline p-nitroanilide, L-Lysyl-L-proline p-nitroanilide ditosylate] (H-Lys-Pro-pNA) | 8.5-8.7 | 121% | 120 µM | 8.2 ± 0.8 μmole/min/1 serum | 49.7 ± 10.2 μmole/min/1 serum | 18.2 ± 4.7 μmole/min/1 serum | 122% | 71% | –
Br.O=C(Nc1ccc([N+](=O)[O-])cc1)[C@@H]1CCCN1 [L-proline p-nitroanilide, L-Proline p-nitroanilide hydrobromide, reference compound] | – | – | – | – | – | – | – | – | rate of hydrolysis by human serum, as % of hydrolysis of glycyl-L-proline p-nitroanilide ([3]; human serum): 0.7%
Cc1ccc(S(=O)(=O)O)cc1.NCC(=O)N1CCC[C@H]1C(=O)Nc1ccc([N+](=O)[O-])cc1 [glycyl-L-proline p-nitroanilide tosylate, Glycyl-L-proline p-nitroanilide tosylate] (H-Gly-Pro-pNA) | – | – | – | – | – | – | – | – | Amount of p-nitroaniline formed ([4]; volume of serum 0.01 ml): 14.24 n mole; Amount of p-nitroaniline formed ([4]; volume of serum 0.02 ml): 32.91 n mole; Amount of p-nitroaniline formed ([4]; volume of serum 0.03 ml): 45.89 n mole; Amount of p-nitroaniline formed ([4]; volume of serum 0.04 ml): 62.50 n mole; Amount of p-nitroaniline formed ([4]; volume of serum 0.05 ml): 82.44 n mole; Amount of p-nitroaniline formed ([4]; volume of serum 0.10 ml): 155.06 n mole; time for perfect dissolution ([5]; 20° C., listed as crystalline glycyl-L-proline p-nitroanilide tosylate): ca. 30 minutes; time for perfect dissolution ([5]; 30° C., listed as crystalline glycyl-L-proline p-nitroanilide tosylate): ca. 18 minutes
Cc1ccc(S(=O)(=O)O)cc1.NCC(=O)N1CCC[C@H]1C(=O)Nc1ccc([N+](=O)[O-])cc1 [glycyl-L-proline p-nitroanilide tosylate] (H-Gly-Pro-pNA) | – | – | – | – | – | – | – | – | time for perfect dissolution ([5]; 20° C., tosylate): ca. 10 seconds; time for perfect dissolution ([5]; 30° C., tosylate): ca. 5 seconds
